Results on three compounds are retold here after patent US6525022B1, “Receptor specific atrial natriuretic peptides” (Genentech, Inc., priority 1993, dated 2003).

The test system of series [1] is rhesus monkeys. Format: in vivo. Conditions: rhesus monkey. The procedure: Administration of Natriuretic Peptides to Rhesus Monkeys. […] A second iv catheter was inserted for fluid administration and blood withdrawal. A urinary catheter was inserted and urine flow monitored at 10 minute intervals. Urine output and blood withdrawal volumes were replaced by intravenous administration of equal volumes of equal parts of one-half normal saline and 5% (W/V) dextrose in water (D5W). […] Every ten minutes, urine, if present, was collected, the volume recorded and analyzed for sodium and potassium content.

The target of series [2] is T1, hNPR-A (Homo sapiens, UniProt P16066).
T1 sequence (P16066 33-1061): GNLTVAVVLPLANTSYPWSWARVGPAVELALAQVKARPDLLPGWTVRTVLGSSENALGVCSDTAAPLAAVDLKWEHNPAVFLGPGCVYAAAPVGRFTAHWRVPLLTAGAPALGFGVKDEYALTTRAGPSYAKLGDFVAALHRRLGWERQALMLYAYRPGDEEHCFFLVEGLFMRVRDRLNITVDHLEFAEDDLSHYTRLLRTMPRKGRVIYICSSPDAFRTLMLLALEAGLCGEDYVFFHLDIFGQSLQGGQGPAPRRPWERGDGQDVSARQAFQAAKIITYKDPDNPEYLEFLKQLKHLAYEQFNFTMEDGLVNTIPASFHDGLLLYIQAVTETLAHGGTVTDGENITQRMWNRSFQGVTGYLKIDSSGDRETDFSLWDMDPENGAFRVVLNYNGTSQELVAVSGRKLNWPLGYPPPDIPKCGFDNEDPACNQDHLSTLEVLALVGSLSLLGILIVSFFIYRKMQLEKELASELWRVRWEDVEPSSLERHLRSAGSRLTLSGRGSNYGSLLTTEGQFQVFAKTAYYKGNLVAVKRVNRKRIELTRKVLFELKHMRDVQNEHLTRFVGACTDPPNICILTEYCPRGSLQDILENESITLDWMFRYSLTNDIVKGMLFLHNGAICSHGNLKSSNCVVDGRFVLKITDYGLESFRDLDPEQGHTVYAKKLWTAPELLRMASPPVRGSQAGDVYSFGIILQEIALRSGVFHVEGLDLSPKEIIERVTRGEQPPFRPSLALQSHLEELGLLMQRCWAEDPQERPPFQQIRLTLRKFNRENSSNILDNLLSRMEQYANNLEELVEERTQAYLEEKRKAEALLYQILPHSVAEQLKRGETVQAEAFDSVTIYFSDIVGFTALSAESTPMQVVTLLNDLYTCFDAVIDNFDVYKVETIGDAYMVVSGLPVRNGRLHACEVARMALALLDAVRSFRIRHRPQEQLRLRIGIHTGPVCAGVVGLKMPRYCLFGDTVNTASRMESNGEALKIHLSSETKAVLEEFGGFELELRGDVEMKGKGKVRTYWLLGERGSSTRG
Nature of the series: Competition binding to hNPR-A (Table I, FIG. 5).

Series [3] deals with T2, hNPR-C (Homo sapiens, UniProt P17342).
T2 sequence (P17342 27-541): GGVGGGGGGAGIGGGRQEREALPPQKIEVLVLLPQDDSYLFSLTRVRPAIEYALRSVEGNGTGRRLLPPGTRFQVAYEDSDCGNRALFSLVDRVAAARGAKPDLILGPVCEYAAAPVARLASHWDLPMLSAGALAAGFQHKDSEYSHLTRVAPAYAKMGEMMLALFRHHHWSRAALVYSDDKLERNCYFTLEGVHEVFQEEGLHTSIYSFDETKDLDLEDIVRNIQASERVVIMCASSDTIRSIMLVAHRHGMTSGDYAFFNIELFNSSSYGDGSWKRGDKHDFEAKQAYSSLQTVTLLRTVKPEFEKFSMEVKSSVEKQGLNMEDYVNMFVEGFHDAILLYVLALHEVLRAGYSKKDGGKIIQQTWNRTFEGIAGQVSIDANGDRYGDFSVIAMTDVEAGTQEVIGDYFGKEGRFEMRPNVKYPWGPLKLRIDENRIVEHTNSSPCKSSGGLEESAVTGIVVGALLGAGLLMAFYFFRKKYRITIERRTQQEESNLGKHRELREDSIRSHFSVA
Kind of series: Competitive binding to membranes from cells expressing human NPR-C. Details: expressed in transfected cells. The note with it: FIG. 19, in comparison to rat ANP. On the procedure: Membrane preparation. Stable cell lines expressing human NPR-A (Lowe and Fendly, J. Biol. Chem. 267:21691-21697 (1992)) or human NPR-C (Cunningham et al., EMBO J 13, 2508-2515 (1994)) were removed from cell culture dishes with 0.5 mM EDTA in phosphate buffered saline (PBS), placed in ice cold PBS and centrifuged at 228 g for 10 min at 4° C. The cell pellets were resuspended in ice-cold homogenization buffer (50 mM HEPES, 1 mM EDTA, 1 mM DTT, 0.25 M sucrose, 0.7 mg/mL pepstatin A, 0.5 mg/mL leupeptin and 1 mM PMSF, pH 7.4). The cells were then homogenized using a Brinkman polytron at setting 5 for 30 sec. The homogenate was centrifuged at 400×g for 10 min at 4° C. The supernatant was collected and centrifuged at 100,000×g for 30 min at 4° C. […] Protein concentrations was determined using the Biorad protein assay with IgG as a standard.
Membrane competition binding assays. […] The plates were washed six times with PBS, then air dried prior to adding scintillant and counted in a Packard Topcount scintillation counter for 1 min/well. Binding was measured in duplicate for each concentration of competitor.
Data analysis. The competition binding curves and cGMP production dose responses were analyzed by the four-parameter logistic equation with the KaleidaGraph™ program (Synergy Software, PA) to obtain estimates of the IC50 or EC50 values. […]

Molecules are shown by their SMILES. Where a SMILES comes first, the peptide text is derived from it. Bridges are numbered along the chain shown (N, C = ends).

Regarding `CC[C@H](C)[C@@H]1NC(=O)[C@H](CCCNC(=N)N)NC(=O)[C@H](CC(=O)O)NC(=O)[C@H]([C@@H](C)CC)NC(=O)[C@H](CO)NC(=O)CNC(=O)[C@H]([C@@H](C)O)NC(=O)[C@H](Cc2ccccc2)NC[C@@H](NC(=O)[C@H](CO)NC(=O)[C@H](CO)NC(=O)[C@H](CCCNC(=N)N)NC(=O)[C@H](CCCNC(=N)N)NC(=O)[C@H](CC(C)C)NC(=O)[C@@H](N)CO)CSSC[C@@H](C(=O)N[C@@H](CC(N)=O)C(=O)N[C@@H](CO)C(=O)N[C@@H](Cc2ccccc2)C(=O)N[C@@H](CCCNC(=N)N)C(=O)N[C@@H](Cc2ccc(O)cc2)C(=O)O)NC(=O)CNC(=O)[C@H](CC(C)C)NC(=O)CNC(=O)[C@H](CO)NC(=O)[C@H](CCC(N)=O)NC(=O)[C@H](C)NC(=O)[C@H](CCCNC(=N)N)NC1=O` [ANF 84], the “Urine flow, potassium excretion and sodium excretion” value in series [1] (7.5 ng/kg/min 60-minute infusion) is “began to rise in parallel at the beginning of the 7.5 ng/kg/min infusion, but returned to baseline by 60 minutes”. Also, in series [1] (25 ng/kg/min infusion), the Potassium excretion entry was “remained at slightly-elevated levels”, the “Sodium excretion above baseline” value is listed as about 100 fold and the “Urine flow above baseline” value is on record as “approximately 10 fold”. For the same compound, the Systolic arterial pressure result in series [1] (escalating iv infusion from 7.5 ng/kg/min) is reported as “began to gradually decline”. Also, the “Infusion rate at which dosing was discontinued because of hypotension” value in series [1] (in vivo) is given as 25 ng/kg/min.

In general, IC50 refers to the concentration needed to halve the response being measured. A higher IC50 goes with weaker potency in that assay. Regarding `CC[C@H](C)[C@@H]1NC(=O)[C@H](CCCNC(=N)N)NC(=O)[C@H](CC(=O)O)NC(=O)[C@H]([C@@H](C)CC)NC(=O)[C@H](CO)NC(=O)CNC(=O)[C@H]([C@@H](C)O)NC(=O)[C@H](Cc2ccccc2)NC(=O)[C@@H](NC(=O)[C@H](CO)NC(=O)[C@H](CO)NC(=O)[C@H](CCCNC(=N)N)NC(=O)[C@H](CCCNC(=N)N)NC(=O)[C@H](CC(C)C)NC(=O)[C@H](CO)NC(=O)[C@H](CCCNC(=N)N)NC(=O)[C@@H]2CCCN2C(=O)[C@H](C)NC(=O)[C@@H](N)[C@@H](C)O)CSSC[C@@H](C(=O)N[C@@H](CC(N)=O)C(=O)N[C@@H](CO)C(=O)N[C@@H](Cc2ccccc2)C(=O)N[C@@H](CCCNC(=N)N)C(=O)N[C@@H](Cc2ccc(O)cc2)C(=O)O)NC(=O)CNC(=O)[C@H](CC(C)C)NC(=O)CNC(=O)[C@H](CO)NC(=O)[C@H](CCC(N)=O)NC(=O)[C@H](C)NC(=O)[C@H](CCCNC(=N)N)NC1=O` [ANF 76] (H-TAPRSLRRSSCFTGSIDRIRAQSGLGCNSFRY-OH; disulfide 11-27; C-terminus assumed), the half-inhibitory concentration (IC50) in series [2] stood at 8.9 pM.

In the case of `CC[C@H](C)[C@@H]1NC(=O)[C@H](CCCNC(=N)N)NC(=O)[C@H](CC(=O)O)NC(=O)[C@H]([C@@H](C)CC)NC(=O)[C@H](CO)NC(=O)CNC(=O)[C@H]([C@@H](C)O)NC(=O)[C@H](Cc2ccccc2)NC(=O)[C@@H](NC(=O)[C@H](CO)NC(=O)[C@H](CO)NC(=O)[C@H](CCCNC(=N)N)NC(=O)[C@H](CCCNC(=N)N)NC(=O)[C@H](CC(C)C)NC(=O)[C@@H](N)CO)CSSC[C@@H](C(=O)N[C@@H](CC(N)=O)C(=O)N[C@@H](CO)C(=O)N[C@@H](Cc2ccccc2)C(=O)N[C@@H](CCCNC(=N)N)C(=O)N[C@@H](Cc2ccc(O)cc2)C(=O)O)NC(=O)CNC(=O)[C@H](CC(C)C)NC(=O)CNC(=O)[C@H](CO)NC(=O)[C@H](CCC(N)=O)NC(=O)[C@H](C)NC(=O)[C@H](CCCNC(=N)N)NC1=O` [ANF 27], the “Binding to human NPR-C membranes, competition for 125I-rat ANP” value in series [3] is on record as “does not effectively bind”.
